The target in experiment [1] is T1, OEP21ΔL5 (Pisum sativum, UniProt Q9SM57, DEL70-80).
T1 construct: made in house; host or cells: Escherichia coli BL21(DE3) (described for OEP21)
The experiment in a line: NMR titrations of OEP21ΔL5 with metabolites. In kind it is binding, garden pea. The following applies: for Kd: KDs dLoop + GAP, dLoop (OEP21ΔL5), unit inferred.

Experiment [2] in a line: ITC of ATP, GAP or phosphate with magnesium. The format is binding. The conditions noted are these: 10 mM HEPES pH7.0, 20 mM NaCl, read-out: KD for Mg^2+. As for the experimental part: ITC experiments were performed with a MicroCal PEAQ-ITC instrument (Malvern Panalytical) at 25 °C in 10 mM HEPES pH 7.0, 20 mM NaCl, 0.5 mM EDTA, 1 mM DTT, 50 mM LDAO. […] Curve fitting and data analysis were done with the Malvern PEAQ-ITC software.
(a) (left) 2D-[^15N,^1H]-TROSY NMR spectra of 400 µM ^2H,^15N-labeled OmpX in LDAO micelles in 20 mM sodium phosphate, pH6.0, 50 mM NaCl, 0.5 mM EDTA and the indicated concentrations of D-GAP at 30 °C and 1.2 GHz magnetic field. (right) 2D-projections along the ^1H dimension of the 2D-spectra shown on (left). […] (right) Relative NMR peak intensities derived from the data in (left) and (middle). Buffer: 10 mM Na-phosphate pH7.0, 20 mM NaCl, 7% (v/v) D2O. […] (right) 150 mM MgCl2 was titrated into 15 mM potassium phosphate (Pi). Buffer conditions for all experiments were: 10 mM HEPES pH7.0, 20 mM NaCl.

The target in experiment [3] is OEP21 (Pisum sativum, UniProt Q9SM57). The experiment in a line: Amide hydrogen exchange NMR (CLEANEX) of OEP21 L5. The following applies: 2 mM ATP or 5 mM GAP; 303 K, pH 6.0. More on the design: made in house; species or system garden pea.

“And” between values parts separate entries of the source, which are not always exact repeats. Identical values can stand only once.

As usually defined, the Kd is the free concentration of one partner at which half of the binding sites on the other are occupied at equilibrium, for simple one-to-one binding. For the compound `O=C[C@H](O)COP(=O)(O)O` [GAP, D-glyceraldehyde-3-phosphate], the Kd in experiment [1] (Mean, mean) is 730 µM; in experiment [1] (individual KDs), 702 µM and 649 µM and 747 µM and 728 µM and 616 µM and 657 µM and 634 µM and 730 µM and 906 µM and 897 µM and 764 µM; in experiment [2], ~9000 µM and 9000 µM. The “effect of L5 on binding affinity (in words)” value in experiment [1] (NMR, Fig. 3h, OEP21 versus OEP21ΔL5) is “approximately a fourfold increase in binding affinity”. For the same compound, the “amide hydrogen exchange rates in L5 in the complex (in words)” value in experiment [3] is “reduced”.

The values are drawn from publication PMC10279527, “Structural basis of metabolite transport by the chloroplast outer envelope channel OEP21” (Nature Structural & Molecular Biology, 2023).
